Results: paper PMC7381750, “JP1 suppresses proliferation and metastasis of melanoma through MEK1/2 mediated NEDD4L-SP1-Integrin αvβ3 signaling” (Theranostics, 2020)

System: B16F10 cell
Assay: B16F10 melanoma-bearing model, JP1 and DTIC alone or in combination
Assay type: in vivo, mouse
Protocol: (A-C) (A) Schematic representation of the B16F10 and MEWO cells melanoma-bearing model for JP1 treatment (n = 6 per group). JP1 and its control agents were administered by intraperitoneal injection. […] (D-G) (D) Schematic representation of the B16F10 cell melanoma passive metastasis model for JP1 treatment. JP1 and its control agents were administered by intraperitoneal injection. […] (F) The representative melanoma lung metastatic images by H&E-staining (scale bars, 1000 μm). […] (J-L) (J) Schematic representation of the B16F10 cell melanoma-bearing model (n= 6 per group). Both JP1 and DTIC alone or in combination treatments and relative control was administered by intraperitoneal injection in mice.
The chemotherapeutic agent dacarbazine (DTIC) is currently as the first line drug used to treat metastatic melanoma in clinic, and was reported to cause painful symptoms and acquired resistance, compromising patient quality of life. To determine the possibility as a combination therapy between DTIC and JP1, we completed a joint treatment of DTIC and JP1 for melanoma tumor-bearing model (Figure 2J).

- liver HE staining (after DTIC treatment): significant degenerations in liver cells
SMILES: CN(C)/N=N/c1[nH]cnc1C(N)=O [DTIC, dacarbazine]
- body weight during treatment (80 mg/kg DTIC i.p.): lost body weight continuously during treatment
- inhibitory effect on melanoma proliferation (80 mg/kg DTIC i.p., B16F10 melanoma-bearing mouse): more significant inhibitory effect on melanoma proliferation than that by 50 mg/kg JP1
